Source: US20050113419A1, “Therapeutic compounds for treating dyslipidemic conditions” (priority 2003, published 2005)

Columns and labels:
Caco-2 cells = test: Cholesterol efflux from cultured human Caco-2 cells; format: cell-based; details: 10 μg/ml apoA-I, 24 hours, mean of quadruplicate incubations
Procedure: Caco-2 cells, which are of human origin, were obtained from ATCC and grown in Opti-MEM (Gibco #51985-034) containing 10% FCS, non-essential amino acids (Gibco #11140-050), and vitamins (Gibco # 11120-052). Caco-2 cells were plated at 100,000 cells/well in 48-well plates. After four days the cells had reached confluence, and were then labeled with ^3H-cholesterol by incubation for 24 hours in fresh growth media containing ^3H-cholesterol (10 μCi/mi). Following labeling with ^3H-cholesterol, cells were washed and incubated an additional 24 hours in serum-free media containing 1 mg/ml BSA, to allow for equilibration of ^3H-cholesterol with intracellular cholesterol. Cholesterol efflux was initiated by adding 10 μg/ml apoA-I, with or without compound, in serum-free medium. Compounds were added to cell culture medium from DMSO solutions, and control cells received an equivalent amount of DMSO, never exceeding 0.1%. After 24 hours, media were harvested and cells dissolved in 0.1 M NaOH. Media were briefly centrifuged to remove non-adherent cells, and then aliquots of both the supernatants and the dissolved cells were subjected to liquid scintillation spectrometry to determine radioactivity. Cholesterol efflux is expressed as a percentage, calculated as (^3H-cholesterol in riedium/(^3H-cholesterol in medium+^3H-cholesterol in cells))×100.

human LXRα = target: T1, human LXRα (Homo sapiens, UniProt Q13133); test: Radioligand competition binding scintillation proximity assay, LXRα
T1 construct: made in house; host or cells: E. coli (pGEX-KT vector)
T1 sequence (Q13133 164-447): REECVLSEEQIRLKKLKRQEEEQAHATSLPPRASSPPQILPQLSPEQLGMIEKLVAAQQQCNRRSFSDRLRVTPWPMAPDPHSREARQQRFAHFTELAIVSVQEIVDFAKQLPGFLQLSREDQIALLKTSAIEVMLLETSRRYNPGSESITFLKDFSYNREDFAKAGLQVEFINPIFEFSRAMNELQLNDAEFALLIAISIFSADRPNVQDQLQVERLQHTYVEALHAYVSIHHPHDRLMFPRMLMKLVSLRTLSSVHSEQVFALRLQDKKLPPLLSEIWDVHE
Description: Radioligand Competition Binding Scintillation Proximity Assays

Structure (SMILES)	% cholesterol efflux (Caco-2 cells; compound 30 nM)	% cholesterol efflux (Caco-2 cells; compound 100 nM)	% cholesterol efflux (Caco-2 cells; compound 300 nM)	% cholesterol efflux (Caco-2 cells; compound 1000 nM)	% cholesterol efflux (Caco-2 cells; compound 3000 nM)	% cholesterol efflux (Caco-2 cells; compound 10000 nM)	Kd (human LXRα)
CCCc1c(OCCCN(C)C(=O)Nc2ccccn2)ccc2c(C(F)(F)F)noc12 [Compound (18), N′-(2-pyridyl)-N-methyl-N-(3-{[7-propyl-3-(trifluoromethyl)-1,2-benzisoxazol-6-yl]oxy}propyl)urea]	3.4%	3.5%	4.9%	5.7%	6.8%	5.6%	–
CCCc1c(OCCCSc2ccc(CC(=O)O)cc2Cl)ccc2c(C(F)(F)F)noc12 [Compound A]	–	–	–	–	–	–	~15 nM
